{"source": "patent US11987637B1", "about": "“Prevention of disulfide bond reduction during recombinant production of polypeptides” (Genentech, Inc., priority 2007, dated 2024)", "key": {"[1]": {"test_system": "ocrelizumab disulfide bond reduction in HCCF", "experiment": "Lab scale HCCF hold time study: percentage of intact antibody in protein A elution pools", "type": "biochemical, CHO", "conditions": "for intact (150 kDa) antibody remaining in protein A elution pools: FIG. 19 legend, HCCF hold"}, "[2]": {"target": "T1, thioredoxin system (Trx, TrxR, NADPH) (Rattus norvegicus, UniProt O89049)", "T1 sequence (O89049 1-499)": "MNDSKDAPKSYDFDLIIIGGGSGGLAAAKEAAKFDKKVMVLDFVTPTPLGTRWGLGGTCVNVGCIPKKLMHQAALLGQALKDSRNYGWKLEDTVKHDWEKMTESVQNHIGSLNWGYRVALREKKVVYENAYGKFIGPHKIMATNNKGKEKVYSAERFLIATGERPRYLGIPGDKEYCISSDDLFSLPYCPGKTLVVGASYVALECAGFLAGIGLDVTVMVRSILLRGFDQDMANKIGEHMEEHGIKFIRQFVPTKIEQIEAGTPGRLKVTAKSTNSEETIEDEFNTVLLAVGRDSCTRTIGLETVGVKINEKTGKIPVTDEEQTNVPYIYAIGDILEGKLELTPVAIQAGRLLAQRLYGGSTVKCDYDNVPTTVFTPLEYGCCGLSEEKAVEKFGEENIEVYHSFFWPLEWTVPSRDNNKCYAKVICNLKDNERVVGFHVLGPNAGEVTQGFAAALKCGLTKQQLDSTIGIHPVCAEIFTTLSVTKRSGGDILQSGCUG", "experiment": "In vitro Trx/TrxR study in PBS: reduction of ocrelizumab, Bioanalyzer assay", "conditions": "inhibitor 1 mM, PBS (FIGS. 6, 7)", "method": "(§1) A commercial TrxR (rat liver) solution (4 μM) was diluted with water to yield a 2.86 μM solution. Lyophilized Trx (human) was reconstituted with PBS (10 mM, pH 7.2) yielding a 500 μM solution. A solution of 20 mM NADPH and 10 mM ATG and ATM solutions were prepared in water.\nIn a black polypropylene 1.5 mL micro centrifuge tube, 437 μL PBS, 25 μL NADPH, 16 μL formulated ocrelizumab solution (30.2 mg/mL) and 5 μL Trx were gently mixed. The reaction was initiated by the addition of 17.5 μL TrxR. The reaction was incubated at room temperature for 24 hours. Aliquots of 20 μL were taken at each sampling time-point and stored at −70° C. until analyzed by the Bioanalyzer assay (see below)."}, "[3]": {"test_system": "ocrelizumab reduction in HCCF (Trx system, G6PD, hexokinase)", "experiment": "HCCF incubation experiment in mini-tanks, Bioanalyzer assay"}, "[4]": {"target": "T1, thioredoxin system (Trx, TrxR, NADPH)", "experiment": "In vitro Trx/TrxR study in histidine sulfate buffer: reduction of ocrelizumab, Bioanalyzer assay", "conditions": "for minimum inhibitory concentration as multiple of TrxR concentration: typical", "method": "as §1\nIn a black polypropylene 1.5 mL micro centrifuge tube, 437 μL reaction buffer (10 mM histidine, 10 mM Na2SO4, 137 mM NaCl, 2.5 mM KCl, pH 7.0), 25 μL NADPH, 16 μL formulated ocrelizumab solution (30.2 mg/mL) and 5 μL Trx were gently mixed. The reaction was initiated by the addition of 17.5 μL TrxR. The reaction was incubated at room temperature for 24 hours. Aliquots of 20 μL were taken at each sampling time-point and stored at −70° C. until analyzed by the Bioanalyzer assay."}, "G6PD": {"target": "G6PD (Homo sapiens, UniProt P11413)", "sequence (P11413 whole entry)": "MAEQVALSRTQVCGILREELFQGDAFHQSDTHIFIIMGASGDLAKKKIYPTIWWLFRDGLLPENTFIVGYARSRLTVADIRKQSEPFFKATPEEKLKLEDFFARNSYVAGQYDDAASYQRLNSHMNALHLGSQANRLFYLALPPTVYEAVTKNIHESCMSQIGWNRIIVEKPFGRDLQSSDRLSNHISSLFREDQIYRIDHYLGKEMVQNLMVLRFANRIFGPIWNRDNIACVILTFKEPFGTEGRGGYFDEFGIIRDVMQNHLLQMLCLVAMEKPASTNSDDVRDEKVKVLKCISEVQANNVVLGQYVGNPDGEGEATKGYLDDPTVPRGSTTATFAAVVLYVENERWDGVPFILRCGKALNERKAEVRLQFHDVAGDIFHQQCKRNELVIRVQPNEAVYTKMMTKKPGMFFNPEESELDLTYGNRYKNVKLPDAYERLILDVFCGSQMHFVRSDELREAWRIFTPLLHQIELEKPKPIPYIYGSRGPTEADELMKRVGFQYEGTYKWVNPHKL", "conditions": "cited from earlier work"}, "[5]": {"test_system": "hexokinase, glucose-6-phosphate dehydrogenase, thioredoxin, thioredoxin reductase", "experiment": "Reconstructed enzymatic reduction system, Bioanalyzer assay", "conditions": "inhibitor 0.1 mM"}, "[6]": {"test_system": "ocrelizumab reduction in HCCF", "experiment": "Dialysis experiment: ocrelizumab in dialysis bag (MWCO 7000) incubated in HCCF", "conditions": "ocrelizumab outside the bag in the HCCF (FIG. 2)", "method": "A dialysis experiment was carried out in order to determine whether the components causing reduction of ocrelizumab were small molecules or macromolecules (i.e. enzymes). A sample of 3 mL of purified and formulated ocrelizumab (30.2 mg/mL) was dialyzed against 1 L of phosphate buffered saline (PBS, 10 mM pH 7.2) for 24 hours and the PBS was changed after 8 hours. The concentration of the ocrelizumab sample was then adjusted to 1 mg/mL using the absorbance at 280 nm. Aliquots were stored at −70° C. prior to use. Dialysis tubing was hydrated overnight in a 0.05% azide solution and rinsed with sterile water prior to use. The HCCF obtained from homogenization of CCF from a 3-L fermentor was thawed and filtered through a 0.22 μm Millipak filter using a peristaltic pump. Six short mini-tanks were filled with 30 mL of HCCF each. To each mini-tank, 500 μL of ocrelizumab sample in sealed dialysis tubing was added.\nA dialysis experiment was designed and carried out to determine if the reduction of ocrelizumab was caused by small reducing molecules or macromolecules (e.g., enzymes). In this dialysis experiment, purified intact ocrelizumab was placed in a dialysis bag with a molecular weight cut off (MWCO) of 7000 and incubated the dialysis bag in HCCF containing ocrelizumab in a stainless steel mini-tank."}, "[7]": {"test_system": "ocrelizumab disulfide bond reduction in HCCF", "experiment": "Air sparging of HCCF: percentage of intact antibody in protein A elution pools", "method": "To evaluate air sparging of the HCCF generated from homogenized CCF to prevent antibody disulfide reduction, 3-L glass or 15-L stainless steel vessels were utilized.\nApproximately 1-5 L of HCCF was 0.22 μm sterile filtered into each sterilized vessel. Experimental conditions were maintained at 18-22° C. and 50 (15-L fermentor) or 275 rpm (3-L fermentor) agitation either with or without pH control by the addition of carbon dioxide. Solutions were either sparged with air to increase the dissolved oxygen level to air saturation or with nitrogen (control) to remove any dissolved oxygen in solution. Gas flow to each vessel was variable dependent upon whether a constant aeration rate was used or a minimum level of dissolved oxygen was maintained. At pre-determined time points, 25-50 mL samples were removed from both vessels and purified over a lab scale protein A affinity resin prior to analysis.\nThe antibody concentration in the purified protein A pool was measured using UV spectrometry at 280 nm. The purified protein A elution pools were analyzed by the Bioanalyzer assay to quantitate the percentage of intact antibody at 150 kDa molecular weight.\nOne HCCF mixture generated from homogenized CCF was stored and held in two separate L stainless steel fermentors. One vessel was sparged with air while the other vessel was sparged with nitrogen gas. The ocrelizumab antibody was purified immediately (t=0 hr) from the initial mixture using protein A chromatography. At selected time points, 50 mL samples were removed from each vessel and the antibody was purified using protein A chromatography. Purified protein A elution pools were then analyzed by the Bioanalyzer assay to quantitate the percentage of intact antibody at 150 kDa."}, "[8]": {"test_system": "antibody disulfide bond reduction in CCF/HCCF", "experiment": "Minimum effective inhibitor concentration to prevent antibody disulfide reduction in the CHO production process", "type": "biochemical", "conditions": "for minimum effective inhibitory concentration as multiple of antibody concentration: usual"}, "[9]": {"conditions": "inhibitor 1 mM, HCCF from homogenized CCF of a 3-L fermentor (FIGS. 11, 12)"}, "[10]": {"conditions": "added pre-lysis, antibody 2H7 (Variant A)"}, "[11]": {"conditions": "inhibitor 2.6 mM (FIGS. 38, 39)"}}}
{"compound": "O=S(=O)([O-])[O-].[Cu+2]", "note": "[CuSO4, cupric sulfate]", "values": [{"measurement": "intact (150 kDa) antibody remaining in protein A elution pools", "setting": "[1]", "value": "~100", "unit": "%"}]}
{"compound": "O=C(O)CC([S-])C(=O)O.[Au+]", "note": "(stereo not drawn) [aurothiomalate]", "values": [{"measurement": "inhibition of ocrelizumab reduction by Trx system", "setting": "[2]", "value": "effectively inhibited the ocrelizumab reduction"}, {"measurement": "inhibition of ocrelizumab reduction in HCCF", "setting": "[3]; [9]", "value": "completely inhibited"}, {"measurement": "inhibition of ocrelizumab reduction by Trx system", "setting": "[4]; inhibitor 0.01 mM (FIG. 30)", "value": "effectively inhibits the reduction of ocrelizumab"}, {"measurement": "inhibition of ocrelizumab reduction by Trx system", "setting": "[4]; inhibitor 0.1 mM (FIG. 29)", "value": "effectively inhibits the reduction of ocrelizumab"}, {"measurement": "minimum inhibitory concentration as multiple of TrxR concentration", "setting": "[4]", "value": "around 4 × TrxR concentration"}]}
{"compound": "NC(=O)C1=CN([C@@H]2O[C@H](COP(=O)(O)OP(=O)(O)OC[C@H]3O[C@@H](n4cnc5c(N)ncnc54)[C@H](OP(=O)(O)O)[C@@H]3O)[C@@H](O)[C@H]2O)C=CC1", "note": "[NADPH, α-nicotinamide adenine dinucleotide phosphate]", "values": [{"measurement": "restoration of lost reduction activity in HCCF", "setting": "[3]; 5 mM NADPH, beta run HCCF after several freeze/thaw cycles (FIG. 14)", "value": "the reduction event returned"}]}
{"compound": "C[C@]12CC[C@H](O)CC1=CC[C@@H]1[C@@H]2CC[C@]2(C)C(=O)CC[C@@H]12", "note": "[DHEA, dehydroepiandrosterone]", "values": [{"measurement": "G6PD inhibition", "setting": "G6PD", "value": "effectively blocks G6PD activity"}, {"measurement": "inhibition of antibody reduction in HCCF", "setting": "[3]; DHEA added to HCCF, concentration not given", "value": "prevents antibody reduction"}, {"measurement": "inhibition of ocrelizumab reduction", "setting": "[5]", "value": "does not inhibit the reduction"}]}
{"compound": "ocrelizumab: humanized anti-CD20 antibody 2H7 Variant A: VL SEQ ID NO:1, VH SEQ ID NO:2, L chain SEQ ID NO:6, H chain SEQ ID NO:7", "values": [{"measurement": "reduction of ocrelizumab", "setting": "[6]", "value": "significantly reduced"}, {"measurement": "ocrelizumab reduction in HCCF, no addition", "setting": "[3]; HCCF from 12,000 L manufacturing run, ambient temperature, more than 19 hours (FIG. 16)", "value": "reduced"}, {"measurement": "ocrelizumab reduction in HCCF, no addition", "setting": "[3]; HCCF from homogenized CCF of a 3-L fermentor (FIG. 10)", "value": "readily reduced"}, {"measurement": "ocrelizumab reduction in HCCF, no addition", "setting": "[3]; beta run HCCF after several freeze/thaw cycles (FIG. 13)", "value": "no ocrelizumab reduction was observed"}, {"measurement": "intact antibody (150 kDa)", "setting": "[1]; control mixture without any addition, 20 hr", "value": "not detected"}, {"measurement": "intact (150 kDa) antibody remaining in protein A elution pools", "setting": "[7]; HCCF sparged with air, FIG. 20 legend", "value": "~100", "unit": "%"}, {"measurement": "ocrelizumab reduction", "setting": "[7]; control HCCF after 5 hours of sparging with nitrogen, FIG. 20 legend", "value": "almost completely reduced"}, {"measurement": "percentage of intact antibody at 150 kDa", "setting": "[7]; initial solution, t=0 hr", "value": "approximately 85%"}, {"measurement": "percentage of intact antibody at 150 kDa", "setting": "[7]; sparged with nitrogen gas, 2 hr", "value": 28, "unit": "%"}, {"measurement": "percentage of intact antibody at 150 kDa", "setting": "[7]; sparged with nitrogen gas, 6 hr", "value": 5, "unit": "%"}]}
{"compound": "NCCSSCCN", "note": "[cystamine]", "values": [{"measurement": "minimum effective inhibitory concentration as multiple of antibody concentration", "setting": "[8]", "value": "about 40 × of the antibody concentration (in μM)"}, {"measurement": "inhibition of ocrelizumab reduction by Trx system", "setting": "[4]; inhibitor 26.6 μM (1:1 cystamine:2H7 disulfide), after 24 hours (FIG. 37)", "value": "insufficient to inhibit the reduction of ocrelizumab"}, {"measurement": "inhibition of ocrelizumab reduction by Trx system", "setting": "[4]; inhibitor 133 μM (5:1 cystamine:2H7 disulfide), after 24 hours (FIG. 36)", "value": "insufficient to inhibit the reduction of ocrelizumab"}, {"measurement": "inhibition of ocrelizumab reduction by Trx system", "setting": "[4]; inhibitor 266 μM (10:1 cystamine:2H7 disulfide) (FIG. 35)", "value": "effectively inhibits thioredoxin-induced reduction of ocrelizumab"}, {"measurement": "inhibition of ocrelizumab reduction by Trx system", "setting": "[4]; inhibitor 532 μM (20:1 cystamine:2H7 disulfide) (FIG. 34)", "value": "effectively inhibits thioredoxin-induced reduction of ocrelizumab"}]}
{"compound": "O=C(O)CN(CCN(CC(=O)O)CC(=O)O)CC(=O)O", "note": "[EDTA, ethylenediaminetetraacetic acid]", "values": [{"measurement": "inhibition of ocrelizumab reduction in HCCF", "setting": "[3]; 20 mM EDTA with 5 mM G6P, beta run HCCF that had fully lost reducing activity (FIG. 18)", "value": "unable to prevent the reduction"}, {"measurement": "inhibition of ocrelizumab reduction in HCCF", "setting": "[3]; 20 mM EDTA, HCCF from 12,000 L manufacturing run (alpha run) (FIG. 17)", "value": "completely inhibited"}, {"measurement": "minimum effective concentration", "setting": "[8]; antibody 2H7 (Variant A)", "value": "about 10 mM"}, {"measurement": "intact (150 kDa) antibody remaining in protein A elution pools", "setting": "[1]", "value": "~100", "unit": "%"}]}
{"compound": "oxidized glutathione [GSSG]", "values": [{"measurement": "minimum effective concentration", "setting": "[8]; [10]", "value": "about 1.3 mM"}, {"measurement": "minimum effective inhibitory concentration as multiple of antibody concentration", "setting": "[8]", "value": "about 40 × of the antibody concentration (in μM)"}, {"measurement": "inhibition of ocrelizumab reduction by Trx system", "setting": "[4]; [11]", "value": "effectively inhibits reduction of ocrelizumab"}]}
{"compound": "O=C[C@H](O)[C@@H](O)[C@H](O)[C@H](O)COP(=O)(O)O", "note": "[Variant G6P, glucose-6-phosphate]", "values": [{"measurement": "restoration of lost reduction activity in HCCF", "setting": "[3]; 10 mM G6P, repeatedly freeze-thawed beta run HCCF (FIG. 15)", "value": "reactivated the Trx system"}]}
{"compound": "OC[C@H]1O[C@H]([S-])[C@H](O)[C@@H](O)[C@@H]1O.[Au+]", "note": "[aurothioglucose]", "values": [{"measurement": "inhibition of ocrelizumab reduction by Trx system", "setting": "[2]", "value": "effectively inhibited the ocrelizumab reduction"}, {"measurement": "inhibition of ocrelizumab reduction in HCCF", "setting": "[3]; [9]", "value": "completely inhibited"}, {"measurement": "inhibition of ocrelizumab reduction by Trx system", "setting": "[4]; inhibitor 0.2 μM (2:1 ATG:TrxR), after 24 hours (FIG. 28)", "value": "cannot inhibit ocrelizumab reduction"}, {"measurement": "inhibition of ocrelizumab reduction by Trx system", "setting": "[4]; inhibitor 0.4 μM (4:1 ATG:TrxR) (FIG. 27)", "value": "effectively inhibits the reduction of ocrelizumab"}, {"measurement": "inhibition of ocrelizumab reduction by Trx system", "setting": "[4]; inhibitor 0.6 μM (6:1 ATG:TrxR) (FIG. 26)", "value": "effectively inhibits the reduction of ocrelizumab"}, {"measurement": "inhibition of ocrelizumab reduction by Trx system", "setting": "[4]; inhibitor 1 mM (FIG. 25)", "value": "effectively inhibits the reduction of ocrelizumab"}, {"measurement": "minimum inhibitory concentration as multiple of TrxR concentration", "setting": "[4]", "value": "around 4 × TrxR concentration"}]}
{"compound": "N[C@@H](CSSC[C@H](N)C(=O)O)C(=O)O", "note": "[cystine]", "values": [{"measurement": "minimum effective concentration", "setting": "[8]; added in the cell culture medium, 2H7 (Variant A)", "value": "about 5.2 mM"}, {"measurement": "minimum effective concentration", "setting": "[8]; added in the cell culture medium, Apomab", "value": "~6", "unit": "mM"}, {"measurement": "minimum effective concentration", "setting": "[8]; added in the cell culture medium, antibody Variant C", "value": "~9", "unit": "mM"}, {"measurement": "minimum effective concentration", "setting": "[8]; added pre-lysis, Apomab", "value": "about 1 mM"}, {"measurement": "minimum effective concentration", "setting": "[8]; [10]", "value": "about 1.3 mM"}, {"measurement": "minimum effective concentration", "setting": "[8]; added pre-lysis, antibody Variant C", "value": "about 4.5 mM"}, {"measurement": "minimum effective inhibitory concentration as multiple of antibody concentration", "setting": "[8]", "value": "about 40 × of the antibody concentration (in μM)"}, {"measurement": "inhibition of ocrelizumab reduction by Trx system", "setting": "[4]; [11]", "value": "effectively inhibits reduction of ocrelizumab"}]}
